# From patent publication US20180011102A1, “THE PROTEIN KINASE ACTIVITY OF PHOSPHOGLYCERATE KINASE 1 AS A TARGET FOR CANCER TREATMENT AND DIAGNOSIS” (Board of Regents, The University of Texas System, priority 2015, published 2018)
# Tests used:
# PGK1 S203 = assay: Hypoxia-induced PGK1 S203 phosphorylation in U87 cells (streptavidin pull-down / immunoblotting); assay type: cell-based, human
# Method: (§1) FIG. 1B. […] FIG. 1C. […] Arrows indicate representative staining of mitochondrial PGK1. Dashed circles indicate mitochondria. FIG. 1D. […] Tubulin was used as a cytosolic protein marker. FIG. 1E. […] Mitochondria fractions and total cell lysates were prepared. FIG. 1F. […] Mitochondria fractions and total cell lysates were prepared. FIG. 1G. […] FIG. 1H. […] FIG. 1I. […] Mitochondrial fractions and total cell lysates were prepared.
# FIGS. 11A-J. ERK1/2-mediated PGK1 S203 Phosphorylation Is Required for Mitochondrial Translocation of PGK1. Immunofluorescence, immunoprecipitation, and immunoblotting analyses were performed with the indicated antibodies. FIG. 11A. U87 cells stimulated with or without hypoxia for 6 h were stained with the indicated antibody, MitoTracker, and DAPI. FIG. 11B. […] FIG. 11C. U87 cells were stably transfected with or without vectors expressing HA-MEK1 Q56P with the indicated Flag-ERK2 proteins. Total cell lysates were prepared. FIG. 11D. […] FIG. 11E. Anti-PGK1 pS203 antibody was used to deplete the phosphorylated PGK1 from total cell lysates prepared from U87 cells treated with or without hypoxia for 6 h. The images were quantified by scanning densitometry. […] FIG. 11H. […] FIG. 11I. […] Mitochondria fractions and total cell lysates were prepared. FIG. 11J.
# Streptavidin or glutathione agarose beads were incubated with cell lysate (1 mg/ml) or purified protein for 12 h. […]
# ERK1/2 = assay: Immunoblotting of hypoxia-induced ERK1/2 phosphorylation/activation in U87 cells; assay type: cell-based, human
# Method: (§2) FIGS. 10A-I. Mitochondrial Translocation of PGK1 is depended on ERK1/2-mediated PGK1 Phosphorylation. FIG. 10A. […] Immunoblotting analyses were performed with the indicated antibodies. FIG. 10B. […] Immunoblotting analyses were performed with the indicated antibodies. FIG. 10C. […] Immunofluorescence analyses were carried out using an anti-PGK1 antibody, MitoTracker, and DAPI. FIG. 10D. U87 cells stably transfected with a vector or Flag-ERK2 K52R were treated with or without hypoxia for 6 h. Mitochondria fractions and total cell lysates were prepared. FIG. 10E. U87 cells were stably transfected with or without vectors expressing HA-MEK1 Q56P with the indicated Flag-ERK2 proteins. Mitochondria fractions and total cell lysates were prepared. Immunoblotting analyses were performed with the indicated antibodies. FIG. 10F. U87 cells were treated with or without hypoxia for 6 h. […] FIG. 10G. Immobilized GST or GST-PGK1 protein was incubated with purified recombinant His-ERK2. Immunoblotting analyses were performed with the indicated antibodies. FIG. 10H. […] Immunoblotting analyses were performed with the indicated antibodies. FIG. 10I. […] Immunoblotting analyses were performed with the indicated antibodies.
# FIGS. 11A-J. ERK1/2-mediated PGK1 S203 Phosphorylation Is Required for Mitochondrial Translocation of PGK1. […] The images were quantified by scanning densitometry. […]
# EGFR = assay: Immunoblotting of hypoxia-induced EGFR phosphorylation in U87 cells; assay type: cell-based, human; conditions: AG1478 100 nM for 30 min before hypoxia 6 h
# PGK1 [1] = assay: Hypoxia-induced mitochondrial translocation of PGK1 (mitochondrial fractionation, immunoblotting, immunofluorescence); assay type: cell-based, human
# Method: as §1
# FIGS. 9A-E. Hypoxia Induces Mitochondrial Translocation of PGK1. FIG. 9A. Total cell lysate, cytosolic, and mitochondrial fractions were prepared from U87 and U251 cells stimulated with or without hypoxia for 6 h. Immunoblotting analyses were performed with the indicated antibodies. Hypoxia-induced HIF1α expression (left panel) was a control for hypoxic stimulation. WCL: whole-cell lysate; Cyto: cytosol; Mito: mitochondria. WB, Western blot. FIG. 9B. Cytosolic and mitochondrial fractions were prepared from U87 and U251 cells stimulated with hypoxia for 6 h. Immunoblotting analyses of equal percentages of cytosolic and mitochondrial fraction were performed with the indicated antibodies. WCL: whole-cell lysate; Cyto: cytosol; Mito: mitochondria. Immunoblotting analyses were performed with the indicated antibodies. The images were quantified by scanning densitometry. FIG. 9C. U87 cells transfected with HIF1α siRNA or a scrambled siRNA before hypoxia stimulation for 6 h. […]
# PGK1 [2] = assay: Determining KM of PGK1 (PGK1-dependent PDHK phosphorylation, Lineweaver-Burke plot); assay type: biochemical, human; conditions: purified recombinant WT PGK1, Sumo-PDHK1, 37° C., means ±SD of three experiments; read-out: Km of ATP for PGK1-dependent PDHK phosphorylation
# Method: FIGS. 14A-P. Mitochondrial PGK1 Phosphorylates PDHK1 at T338. FIG. 14A. […] Immunoblotting analyses were performed with the indicated antibodies. FIG. 14B. U87 cells (left panel) or U87/EGFR (right panel) cells expressing PGK1 shRNA with or without reconstituted expression of WT rPGK1 and the indicated mutants were stimulated with or without hypoxia for 6 h (left panel) or EGF (100 ng/ml) (right panel) for 6 h. These cells were incubated with [1-^14C]-pyruvate for 2 h. [1-^14C]CO2 production rates were measured. FIG. 14C. U87 cells expressing SFB-PDHK1, SFB-PDHK2, SFB-PDHK3, or SFB-PDHK4 were stimulated with or without hypoxia for 6 h. Mitochondrial fractions of these cells were prepared. […] ATP concentrations in mitoplast isolated from U87 or U251 cells treated with or without hypoxia for 6 h were measured. […] The glycolytic activities of bacterially purified WT PGK1, PGK1 T378P, PGK1 S203A, and PGK1 R39/K41A were measured. […]
# Purified recombinant WT PGK1 (0.2 ng) was incubated in 100 μl of reaction buffer (50 mM Tris-HCl [pH 7.5], 600 ng/μl Sumo-PDHK1, 5 mM MgSO4, 1 mM Na3VO4, 1 mM DTT, 1.8 mM phosphorenolpyruvate, 7 units pyruvate kinase, 10 units lactic dehydrogenase, 0.01 mM NADH) with indicated ATP concentration at 37° C. in 96-well plate and were read by multidetection microplate readers (BMG LABTECH, Cary, N.C.) at 339 nm in kinetic mode for 5 min. […]
# U87 cells = assay: Cell proliferation assay under hypoxia; assay type: cell-based, human; conditions: PGK1-depleted U87 cells reconstituted with WT PGK1 or PGK1 R39/K41A, DTT 1 mM, hypoxia 4 days
# Method: FIGS. 17A-H. Mitochondrial PGK1-Dependent PDHK1 Phosphorylation Promotes Cell Proliferation and Brain Tumorigenesis. FIGS. 17A-C. Data represent the means ±SD of three independent experiments. FIG. 17A. A total of 2×10^5 U251 cells with or without PGK1 shRNA (left panel) or PDHK1 shRNA (right panel) expression and with or without reconstituted expression of their WT counterparts and the indicated mutants were plated for 4 days under hypoxic conditions. The cells were then collected and counted. FIG. 17B. A total of 2×10^5 endogenous PGK1-depleted U87 cells with reconstituted expression of WT rPGK1 or rPGK1 R39/K41A were plated and treated with or without DTT (1 mM) during hypoxia for 4 days. The cells were then collected and counted. FIG. 17C. Mitochondria fractions and total cell lysates from endogenous PGK1-depleted U87/EGFRvIII cells with reconstituted expression of WT rPGK1 or rPGK1 S203A were prepared. […] The indicated U87/EGFRvIII cells (2×10^5) were plated for 3 days and were counted (right panel). […] The cells were then collected and counted. #p<0.05. […] Tumor volume was calculated using length a and width b: V=ab^2/2. […] Ki67-positive cells were quantified in 10 microscope fields. […] Apoptotic cells were quantified in 10 microscope fields.
# A total of […] cells were plated and counted at 4 days after seeding in DMEM with 10% dialyzed bovine calf serum during hypoxia. […]
# MAPK/APK2 = assay: Immunoblotting of hypoxia-induced MAPK/APK2 phosphorylation in U87 cells; assay type: cell-based, human; conditions: pretreated with SB203580 10 μM for 30 min, hypoxia 6 h
# Method: as §2
# PGK1 [3] = conditions: U87/EGFR cells, U0126 20 μM for 30 min, EGF 100 ng/ml 6 h
# Method: EGFR-overxpressed U87 (U87/EGFR) cells pretreated with U0126 (20 μM) for 30 min were stimulated with or without EGF (100 ng/ml) for 6 h. Mitochondria fractions and total cell lysates were prepared.
# U87, U87/EGFR, and U251 human GBM cells, BxPC-3 human pancreatic cancer cells, CHL1 human melanoma cells, and mouse embryo fibroblast (MEF) cells were maintained in Dulbecco's modified Eagle's medium (DMEM) supplemented with 10% dialyzed bovine calf serum without pyruvate (HyClone, Logan, Utah). […] For EGF treatments, cell cultures were made quiescent by growing them to confluence, and the medium was replaced with fresh medium containing 0.5% serum for 1 day. EGF at a final concentration of 100 ng/ml was used for cell stimulation.
# Mitochondrial and cytosolic fractions were isolated using a mitochondria/cytosol fractionation kit from BioVision (Mountain View, Calif.). Mitochondrial proteins and cytosolic proteins were used in immunoblotting analyses.
# PIN1 and PGK1 = conditions: U87 cells, U0126 20 μM for 30 min before hypoxia 6 h
# Method: FIGS. 2A-F and H-I. Immunoblotting and immunoprecipitation analyses were carried out using antibodies against the indicated proteins. FIG. 2A U87 cells were pretreated with or without U0126 (20 μM) for 30 min before hypoxic stimulation for 6 h. […] U87 cells were treated with or without hypoxic stimulation for 6 h. A GST pull-down assay with the indicted GST-proteins was performed. […] U87 cells expressing the indicated PGK1 proteins were treated with or without hypoxic stimulation for 6 h.
# [4] = U87 cells, AG1478 100 nM for 30 min before hypoxia 6 h
structure (smiles),measurement,setting,value
COc1cc2ncnc(Nc3cccc(Cl)c3)c2cc1OC [AG1478],hypoxia-induced phosphorylation of PGK1,PGK1 S203; [4],blocked
same,hypoxia-induced ERK activation,ERK1/2; AG1478 100 nM for 30 min before hypoxia 6 h,blocked
same,hypoxia-induced EGFR phosphorylation,EGFR,blocked
same,hypoxia-induced mitochondrial translocation of PGK1,PGK1 [1]; [4],blocked
"Nc1ncnc2c1ncn2[C@@H]1O[C@H](COP(=O)(O)OP(=O)(O)OP(=O)(O)O)[C@@H](O)[C@H]1O [ATP, adenosine triphosphate]",Km,PGK1 [2],560 ± 53 µM
O[C@@H](CS)[C@@H](O)CS [DTT],hypoxia-induced growth suppression,U87 cells,partially rescued
C[S+]([O-])c1ccc(-c2nc(-c3ccncc3)c(-c3ccc(F)cc3)[nH]2)cc1 (stereo not drawn) [SB203580],hypoxia-induced phosphorylation of MAPK/APK2,MAPK/APK2,blocked
N#CC(=C(/N)Sc1ccccc1N)/C(C#N)=C(\N)Sc1ccccc1N [U0126],EGF-induced mitochondrial translocation of PGK1,PGK1 [3],blocked
same,hypoxia-induced PGK1 S203 phosphorylation,"PGK1 S203; U87 cells expressing SFB-tagged PGK1, U0126 20 μM or SP600125 25 μM for 30 min before hypoxia 6 h",abolished
same,hypoxia-induced phosphorylation of ERK1/2,"ERK1/2; pretreated with U0126 20 μM for 30 min, hypoxia 6 h",blocked
same,hypoxia-increased interaction between endogenous PIN1 and PGK1,PIN1 and PGK1,blocked
same,hypoxia-induced mitochondrial translocation of PGK1,"PGK1 [1]; U87 and U251 cells, U0126 20 μM for 30 min before hypoxia 6 h",notably reduced
